Consider 1 molecule from patent US9833433B1, “Compositions, methods of use, and methods of treatment” (priority 2013, dated 2017).

One data set concerns Aβ plaques. Put plainly: Aβ plaques in 5XFAD APP transgenic mice (immunohistochemistry). The data set is classed as in vivo. Conditions: Δ^9-THC 3 mg/kg once daily for 4 weeks. As for the experimental part: Immunohistochemical analyses were performed to determine total Aβ in coronal brain sections as described previously (Chen et al., 2012). 5XFAD APP transgenic mice that vehicle, or Δ^9-THC (3 mg/kg) or Δ^9-THC+Celebrex (1 mg/kg) for 4 weeks at 4 to 6 months of age were anesthetized with ketamine/Xylazine (200/10 mg/kg) and subsequently transcardially perfused with PBS followed by 4% paraformaldehyde in phosphate buffer. The brains were quickly removed from the skulls and fixed in 4% paraformaldehyde overnight, and then transferred into the PBS containing 30% sucrose until sinking to the bottom of the small glass jars. Cryostat sectioning was made on a freezing Vibratome at 40 μm and series sections (10 to 12 slices) were collected in 0.1M phosphate buffer. […] 4′-6-Diamidino-2-phenylindole (DAPI), a fluorescent stain that binds strongly to DNA, was used it to detect cell nuclei in the sections. The sections were then mounted on slides for immunofluorescence detection using a Zeiss fluorescence microscope.

The test system of a further data set is fear memory. Description: Fear conditioning test (contextual memory). The data set is classed as in vivo, mice. Conditions: 10 mg/kg once a day for 7 days; freezing 24 hrs after last injection. As for the experimental part:
(§1) The classic Morris water maze and fear conditioning tests were performed to determine spatial and fear memory as described previously (Chen et al., 2012). The ‘open field’ test was conducted to detect the locomotor activity and the bar test was used to detect catalepsy (Egashira et al., 2007).
Hippocampus-dependent contextual memory was determined using a fear-conditioning working-station (Coulbourn Instruments, Allentown, Pa.) and a one-trial protocol as describe previously (Chen et al., 2006a; 2006b). Mice were individually put into the shock chamber and allowed to freely explore the environment for 150 seconds. Immediately after this, a tone at 90 dB and 2,800 Hz (CS) was delivered for 30 seconds, and at the last 2 seconds a foot shock at 0.8 mA was delivered to the mice for 2 seconds (US). After the pairing of CS/US, mice were allowed to stay in the chamber for another 30 seconds and then returned to their home cages. Then the animals started receiving vehicle, Δ^9-THC (10 mg/kg), NS398 (10 mg/kg), Δ^9-THC+NS398 once a day for 7 days. Fear memory test was conducted 24 hours after the cessation of the last injections. For contextual conditioning, mice were individually put back into the chamber where they received the shock and the freezing response was recorded for 5 minutes with a sampling method at an interval of 5 seconds. […]

A further data set relates to degenerated neurons. Description: Degenerated neurons by Fluoro-Jade C staining in 5XFAD APP transgenic mice. The data set is classed as in vivo. Conditions: Δ^9-THC 3 mg/kg once daily for 4 weeks. On the procedure:
Degenerated neurons were detected using Fluoro-Jade C (FJC), which is an anionic dye that specifically stains the soma and neurites of degenerating neurons and thus is unique as a neurodegenerative marker. Cryostat cut sections were incubated in the solution with FJC (0.0001% solution, EMD Millipore) and DAPI (0.5 μg/ml) for 10 min, followed by 3×1-min wash with distilled water. Slices were dried naturally at room temperature without light. The images were taken using a Zeiss deconvolution microscope with SlideBook 5.0 software as described previously (Chen et al., 2012).

Another data set has as its system spatial memory. Description: Morris water maze test (spatial memory). It is filed as in vivo, mice. Conditions: 10 mg/kg once a day for 7 days. As for the experimental part:
as §1
The classic Morris water maze test was used to determine spatial memory as described previously (Chen et al., 2012). A circular water tank (diameter 120 cm and 75 cm in high) was filled with water and the water was made opaque with non-toxic white paint. A round platform (diameter 15 cm) was hidden 1 cm beneath the surface of the water at the center of a given quadrant of the water tank. COX-2 KO and WT mice received training in the Morris water maze for 5 days without any treatments (naïve). […] For each trial, the mouse was released from the wall of the tank and allowed to search, find, and stand on the platform for 10 seconds within the 60-second trial period. […] During the probe test, the platform was removed from the pool, and the task performances were recorded for 60 seconds by a video-camera and the task performances, including swimming paths, speed, and time spent in each quadrant using an EthoVision video tracking system (Noldus). The time spent in each quadrant was analyzed.

A further data set relates to PGE2. Description: PGE2 assay in hippocampal tissue (enzyme immunoassay). The data set is classed as in vivo, mice. Conditions: 10 mg/kg; detected 4 hrs after injection. From the text:
PGE2 in hippocampal tissue was detected using PGE2 enzyme immunoassay kit (Cayman Chemical, Ann Arbor, Mich.) according to the procedure described by the manufacturer (Zhang and Chen, 2008).

Turning to `CCCCCc1cc(O)c2c(c1)OC(C)(C)[C@@H]1CCC(C)=C[C@@H]21` [Δ^9-THC, Δ^9-tetrahydrocannabinol], the “numbers of Aβ plaques” value in the data set with Aβ plaques (absence of Celebrex) and in the data set on Aβ plaques (presence of Celebrex 1 mg/kg) was “significantly reduced” throughout. Besides, the “fear memory after repeated Δ^9-THC” value with fear memory is reported as “impaired fear memory”. The “numbers of degenerated neurons” value with degenerated neurons (absence of Celebrex) and in the data set on degenerated neurons (presence of Celebrex 1 mg/kg) was “significantly reduced” in each case. The “spatial memory and memory retention after repeated Δ^9-THC” value in the data set with spatial memory was “impaired spatial memory and memory retention”. In addition, in the data set on PGE2, the “hippocampal PGE2 production after cannabinoid injection” value is “elevated production of prostaglandin E2 (PGE2)”.
